# Test results published in PubChem BioAssay AID1500 (NMMLSC, 2009).
# Calls of active or inactive are those of the source.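 How the source made its calls: active means compounds cutting labeled signal peptide binding to staph cells by half or more; inactive means the rest.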
# Tested on: S. aureus cells, FITC-AIP binding, flow cytometry
# Experiment: inhibitors of FITC-AIP binding to S. aureus, late-stage follow-up, mechanism study for S. aureus quorum sensing inhibitors, strains RN6390, NM300, flow cytometry (AID 1500)
# Settings: stronger effect = higher value
smiles,measurement,setting,value
CC1CCCN(C(C(=O)Nc2ccc3c(c2)OCCO3)c2ccccc2)C1 (stereo unspecified),inhibition,at 12 µM,26% (inactive)
Cc1c(Cl)cccc1Nc1ccccc1C(=O)O,inhibition,at 30 µM,67%
same,inhibition,"strain RN6390, at 30 µM",60%
CCc1oc2ccccc2c1C(=O)c1cc(Br)c(O)c(Br)c1,inhibition,at 6 µM,65%
same,inhibition,"strain RN6390, at 6 µM",69%
CC1CCCN(C(C(=O)Nc2ccc3c(c2)OCO3)c2ccccc2)C1 (stereo unspecified),inhibition,at 12 µM,20% (inactive)
